The text below walks through data of patent publication US8563547B2, “(6,7-dihydro-2-nitro-5H-imidazol[2,1-b][1,3]oxazin-6-yl) amide compounds, preparation methods and uses thereof” (Shanghai Sun-Sail Pharmaceutical Science & Technology Co., …, priority 2010, dated 2013).

Series [1] relates to Mycobacterium tuberculosis strain H37Rv. In words: Activity test for Mycobacterium tuberculosis (MIC, liquid medium, 96-well microplate). Format: cell-based. The note with it: for MIC: Mycobacterium tuberculosis, liquid medium, 37° C., read-out: Minimal inhibitory concentration for H37Rv; for activity for H37Rv, times as that of PA-824: relative to PA-824; for MIC for H37Rv, times as that of ethambutol: relative to ethambutol. As to the method: Tested Mycobacterium tuberculosis strain H37Rv was transferred to liquid medium, cultured for 2 weeks at 37° C., drew a little culture liquid of bacterium and placed into 4 mL liquid medium, added 10˜20 sterile glass bead of 2˜3 diameter, shook for 20˜30S, absolute-rest precipitated for 10˜20 min, aspirated bacterium suspension supernatant, turbidity was adjusted to 1 Maxwell unit with liquid medium, equivalent to 1×10^7CFU/mL for use. Each drug was dissolved to 1 mg/mL by adding an appropriate amount of DMSO, filtered through 0.22 μm filter. Again diluted to the required experimental concentration with liquid medium. The final concentration of test drugs were set as follows: 0.001 μg/mL, 0.002 μg/mL, 0.004 μg/mL, 0.008 μg/mL, 0.015 μg/mL, 0.03 μg/mL, 0.06 μg/mL, 0.12 μg/mL, 0.25 μg/mL, 0.5 μg/mL, 1 μg/mL, 2 μg/mL, 4 μg/mL, 8 μg/mL and 16 μg/mL, there totally are 15 concentration gradients. 100 μL of each above-mentioned drug solution was added to 96-well microplate, further added 100 μL […] bacteria liquid so that drug concentration could reach the set final concentration, cultured at 37° C. The same drug dilution was done in triplate in parallel, control group didn't added drug, inoculation amount was set to 100%, 10% and 1% respectively. Minimal inhibitory concentration (MIC) for Mycobacterium tuberculosis by each drug was observed, and compared with MIC results of first-line antituberculosis drug ethambutol and PA-824 in clinical research phase at the same time.

The next series in a line: physchem. Format: physicochemical. The note with it: for solubility at 3 days: pH 1.2, simulated gastric fluid, thermodynamic from solid. How it is done:
3-5 mg tested compound was added to 0.5 mL pH=1.2 HCL aqueous solution, shook for 3 days in a shaker, samples were centrifuged at 10000 r/min for 5 min, aspirated […] supernatant to 50 mL volumetric flask, added water and metered volume to the mark to make sample solution; precisely weighted 2.6 mg sample to 50 mL volumetric flask, added an appropriate amount of methanol to dissolve. Added water and metered volume to the mark, shook up to give control sample solution. Loaded 20 μL sample solution and control sample solution respectively, tested for liquid phase. Calculated as follows: Solubility (mg/mL)=C(control)*25*A(sample)/A(control)
C(control): the concentration of control sample
A(sample): peak area of liquid phase of sample solution
A(control): peak area of liquid phase of control sample solution

Series [2] can be described thus: Drug metabolism test: pharmacokinetics in mice. It counts as in vivo, ICR mice. The following applies: for MRT last: read-out: MRT0-t. How it is done: (§1) 16 healthy male ICR mice with 18-22 g of body weight were used. Drugs were employed by intravenous or gavage administration, administration doses were 5 mg and 25 mg/kg, administration volume was 10 mL/kg. Fasted for 12 h before test with free access to water. Uniformly fed at 2 h after administration. 0.3 mL blood was drawn through mice post-glomus venous plexus according to set time points, placed in heparinized test tube, centrifuged at 3000 r/min for 10 min, separated plasma, frozen in refrigerator at −20° C. When detected, samples were treated according to plasma sample treatment method, drug concentration in plasma was determined by LC-MS method, and calculated its pharmacokinetic parameters.

Series [3] can be described thus: Tissue distribution test in mice. It counts as in vivo. The following applies: orally administrated 25 mg/kg. How it is done:
as §1
After compound 1 was orally administrated to mice (25 mg/kg), the concentrations of the compound in […], lung, brain and plasma at different time was shown as FIG. 1.

Setting [4] is: male, ICR, mouse, IV (5 mg/kg), plasma.
The mark [5] stands for this setting: male, ICR, mouse, PO (25 mg/kg), plasma.

In brackets after ≈: the same amount, converted by molar mass. Where two headings read alike, the source gives them in different places.

Regarding `CC(C)Oc1ccc(OC2CCN(CC(=O)N[C@@H]3COc4nc([N+](=O)[O-])cn4C3)CC2)cc1` [Compound 14], in series [1], the MIC was 0.06 µg/mL (≈ 0.131 µM); the “activity for H37Rv, times as that of PA-824” value (“activity for H37Rv, times” for short) stood at 2 times; the “MIC for H37Rv, times as that of ethambutol” value (“MIC for H37Rv, times as that” for short) is on record as 8 times.
One may read the solubility as the concentration that dissolves in the medium under given conditions. A higher solubility goes with a readily soluble substance. On to `O=C(CN1CCN(Cc2ccc(OC(F)(F)F)cc2)CC1)N[C@@H]1COc2nc([N+](=O)[O-])cn2C1` [Compound 17, (S)-N-(6,7-dihydro-2-nitro-5H-imidazo [2,1-b][1,3]oxazin-6-yl)-2-(4-(4-(trifluoromethoxy)benzyl)piperazin-1-yl)acetamide], for which, in the series “physchem”, the “water-solubility, times as that of PA-824” value (“water-solubility, times” below) turned out to be 155 times and the concentration in solution (solubility at 3 days) was 1460 µg/mL (≈ 3010 µM). For the same compound, the MIC in series [1] amounted to 0.12 µg/mL (≈ 0.248 µM).
Broadly, the AUC(0-inf) is total exposure, with the tail of the curve extrapolated. Read a low AUC(0-inf) as less exposure. What is called AUC(0-t) is the area under the concentration-time curve up to a stated or last time point. By Cmax is commonly meant the peak of the concentration-time curve. A word on the half-life: it is the time in which the quantity being followed falls by half. What is called Tmax is the time from dosing to the highest level. For `O=C(CN1CCC(Oc2ccc(OC(F)(F)F)cc2)CC1)N[C@@H]1COc2nc([N+](=O)[O-])cn2C1` [Compound 1, (S)-N-(6,7-dihydro-2-nitro-5H-imidazo [2,1-b][1,3]oxazin-6-yl)-2-(4-(4-(trifluoromethoxy)phenoxy)piperid-1-yl)acetamide], the CLz in series [2] (IV (5 mg/kg)) stood at 0.64 L/h/kg. In series [2] (setting [4]), this compound showed an AUC(0-inf) of 7860 ng·h/mL, an exposure AUC(0-t) of 7850 ng·h/mL, a Cmax of 3880 ng/mL and a half-life of 168 min. In addition, the MRT last in series [2] (setting [4]) was found to be 3.6 h. Moreover, in series [2] (setting [5]), the area under the curve AUC(0-inf) was determined as 40200 ng·h/mL, the AUC(0-t) came out at 40100 ng·h/mL, the peak level (Cmax) was 4790 ng/mL and the time to peak (Tmax) stood at 1 h. Also, in series [2] (setting [5]), the half-life is 162 min and the MRT last was 5 h. In addition, the Vd in series [2] (male, ICR, mouse, plasma, IV (5 mg/kg), read-out: Vz) turned out to be 2.3 L/kg. In series [2] (male, ICR, mouse, plasma, PO 25 mg/kg vs IV 5 mg/kg, read-out: F (oral bioavailability)), the bioavailability stood at 102%. Moreover, in the series “physchem”, the “water-solubility, times” value was 79 times and the solubility at 3 days is 746 µg/mL (≈ 1540 µM). Further, in series [1], the MIC was 0.03 µg/mL (≈ 0.0618 µM); the “activity for H37Rv, times” value is 4 times; the “MIC for H37Rv, times as that” value came to 16 times. The “site of major distribution” value in series [3] is “lung and spleen”. For the same compound, the tissue distribution property result in series [3] (FIG. 1) was “good tissue distribution property”.
Consider `O=C(CCN1CCC(Oc2ccc(OC(F)(F)F)cc2)CC1)N[C@@H]1COc2nc([N+](=O)[O-])cn2C1` [Compound 22, (S)-N-(6,7-dihydro-2-nitro-5H-imidazo [2,1-b][1,3]oxazin-6-yl)-3-(4-(4-(trifluoromethoxy)phenoxy)piperid-1-yl)propanamide], for which, in the series “physchem”, the “water-solubility, times” value is reported as 72 times and the solubility at 3 days was 677 µg/mL (≈ 1360 µM). Further, in series [1], the MIC was 0.06 µg/mL (≈ 0.12 µM); the “activity for H37Rv, times” value is on record as 2 times; the “MIC for H37Rv, times as that” value is 8 times.
Take `O=C(CN1CCC(Oc2ccc(OC(F)(F)F)c(F)c2)CC1)N[C@@H]1COc2nc([N+](=O)[O-])cn2C1` [Compound 3, 2-(4-(3-fluoro-4-(trifluoromethoxy)phenoxy)piperid-1-yl)-N-((S)-6,7-dihydro-2-nitro-5H-imidazo[2,1-b][1,3]oxazin-6-yl)acetamide]: in series [1], the MIC was found to be 0.06 µg/mL (≈ 0.119 µM); the “activity for H37Rv, times” value is recorded as 2 times; the “MIC for H37Rv, times as that” value amounted to 8 times.
As for `O=C(CN1CCC(Oc2ccc(OCCOC3CC3)cc2)CC1)N[C@@H]1COc2nc([N+](=O)[O-])cn2C1` [Compound 16, (S)-2-(4-(4-(2-(cyclopropoxy)ethoxy)phenoxy)piperid-1-yl)-N-(2-nitro-6,7-dihydro-5H-imidazo [2,1-b][1,3]oxazin-6-yl)acetamide], in series [1], the MIC came out at 0.03 µg/mL (≈ 0.0598 µM); the “activity for H37Rv, times” value came to 4 times; the “MIC for H37Rv, times as that” value is given as 16 times.
Consider `O=[N+]([O-])c1cn2c(n1)OC[C@@H](OCc1ccc(OC(F)(F)F)cc1)C2` [PA-824, reference compound], for which the concentration in solution in “physchem” (solubility at 3 days) came to 9.4 µg/mL (≈ 26.2 µM). Further, the MIC in series [1] is 0.12 µg/mL (≈ 0.334 µM).
In the case of `CC[C@@H](CO)NCCN[C@@H](CC)CO` [ethambutol, reference compound], in series [1], the MIC came to 0.5 µg/mL (≈ 2.45 µM).
On to `O=C(CCCN1CC(Oc2ccc(OC(F)(F)F)cc2)C1)N[C@@H]1COc2nc([N+](=O)[O-])cn2C1` [Compound 26, 4-(3-(4-(trifluoromethoxy)phenoxy)azetidin-1-yl)-N-((S)-6,7-dihydro-2-nitro-5H-imidazo [2,1-b][1,3]oxazin-6-yl)butyramide], for which, in “physchem”, the “water-solubility, times” value came to 90 times and the solubility at 3 days was 846 µg/mL (≈ 1740 µM). Besides, in series [1], the MIC was determined as 0.03 µg/mL (≈ 0.0618 µM); the “activity for H37Rv, times” value stood at 4 times; the “MIC for H37Rv, times as that” value was 16 times.
